According to the supplement of paper PMC10307832:

How the values were obtained:
Assay in all cases: relative viability (nuclei count vs DMSO), 5 days (fraction); higher = more cells survive
[1] = compound: CC1=C(C(=NN1)C)CC2=C(C3=C(S2)N(C(=O)N(C3=O)C)CC(C)C)C(=O)N4C[C@@H](CO4)O + Nc1ncn([C@H]2C[C@H](O)[C@@H](CO)O2)c(=O)n1 [Decitabine] (partner 2 µM)
How it was run: (§1)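 Five library-drug doses in √10 steps were combined with a fixed anchor-drug dose, or a single drug was given alone, by pin tool to lung cancer cell lines in 1536-well plates the day after seeding. Nuclei were stained and counted after 5 days. Relative viability is the nuclei count in treated wells over that in vehicle wells, taken as the median of duplicate plates.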

[2] = compound: CC1=C(C(=NN1)C)CC2=C(C3=C(S2)N(C(=O)N(C3=O)C)CC(C)C)C(=O)N4C[C@@H](CO4)O + CC(=O)Nc1cccc(-n2c(=O)n(C3CC3)c(=O)c3c(Nc4ccc(I)cc4F)n(C)c(=O)c(C)c32)c1 [Trametinib] (partner 0.02 µM)
How it was run: as §1

[3] = compound: CC1=C(C(=NN1)C)CC2=C(C3=C(S2)N(C(=O)N(C3=O)C)CC(C)C)C(=O)N4C[C@@H](CO4)O + N=C(N)NC(=N)NCCc1ccccc1 [Phenformin] (partner 250 µM)
How it was run: as §1

IDH-C35 + Navitoclax = compound: Cc1ccccc1C(C(=O)NC1CCCCC1)N(C(=O)Cn1ccnc1C)c1cccc(F)c1 [IDH-C35] + CC1(C)CCC(c2ccc(Cl)cc2)=C(CN2CCN(c3ccc(C(=O)NS(=O)(=O)c4ccc(N[C@H](CCN5CCOCC5)CSc5ccccc5)c(S(=O)(=O)C(F)(F)F)c4)cc3)CC2)C1 [Navitoclax] (partner 0.5 µM)
How it was run: as §1

Cell Line	relative viability ([1]; first compound 0.0025 µM)	relative viability ([1]; first compound 0.007906 µM)	relative viability ([1]; first compound 0.025 µM)	relative viability ([1]; first compound 0.07906 µM)	relative viability ([1]; first compound 0.25 µM)	relative viability ([2]; first compound 0.0025 µM)	relative viability ([2]; first compound 0.007906 µM)	relative viability ([2]; first compound 0.025 µM)	relative viability ([2]; first compound 0.07906 µM)	relative viability ([2]; first compound 0.25 µM)	relative viability ([3]; first compound 0.0025 µM)	relative viability ([3]; first compound 0.007906 µM)	relative viability ([3]; first compound 0.025 µM)	relative viability ([3]; first compound 0.07906 µM)	relative viability ([3]; first compound 0.25 µM)	relative viability (IDH-C35 + Navitoclax; first compound 0.08 µM)	relative viability (IDH-C35 + Navitoclax; first compound 0.253 µM)	relative viability (IDH-C35 + Navitoclax; first compound 0.8 µM)	relative viability (IDH-C35 + Navitoclax; first compound 2.53 µM)	relative viability (IDH-C35 + Navitoclax; first compound 8 µM)
NCI-H1437	0.532	0.59	0.519	0.612	0.548	0.617	0.675	0.543	0.563	0.511	0.318	0.313	0.301	0.297	0.306	1.08	1.07	1.08	1.19	0.975
NCI-H1792	0.483	0.489	0.408	0.451	0.517	0.471	0.418	0.409	0.548	0.585	0.259	0.173	0.127	0.172	0.155	0.637	0.593	0.619	0.621	0.646
ChaGo-K-1	0.506	0.509	0.508	0.536	0.553	0.94	0.871	0.889	0.918	0.916	0.467	0.451	0.407	0.447	0.47	0.62	0.966	1.09	0.73	1.17
COR-L23	0.439	0.41	0.406	0.304	0.381	0.662	0.74	0.452	0.547	0.712	0.397	0.395	0.342	0.355	0.344	1.17	0.907	0.977	0.979	1.05
COR-L 105	0.574	0.632	0.653	0.644	0.615	0.48	0.443	0.511	0.466	0.406	0.34	0.324	0.231	0.279	0.244	1.01	1.04	0.64	0.899	0.569
LK-2	0.261	0.397	0.268	0.237	0.273	0.703	0.952	0.651	0.613	0.61	0.304	0.321	0.195	0.187	0.263	0.88	0.834	0.866	0.911	0.903
201T	0.87	0.866	0.795	0.865	0.82	0.715	0.708	0.713	0.739	0.694	0.468	0.383	0.426	0.472	0.426	1.18	1.19	1.19	1.17	1.19
HCC-44	0.978	0.961	0.949	0.912	1.06	1.11	1.08	1.1	1.05	1.05	0.263	0.223	0.142	0.208	0.225	0.927	1.02	1.02	0.953	0.952
